Tests used:
Type in all cases: in vivo
[1] = test system: Echinochloa oryzacola Vasing.; experiment: Test Example 2: herbicidal activity, application during weed generation in submerged conditions; details: Eighteenth Table; application herbicide amount 320 g/ha
Method in brief: (§1)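 Paddy-type pot test: flooded soil, 4 cm depth, greenhouse 25–30 °C. Emulsion formulation diluted in water, applied to water surface at 1–2 leaf stage; rate expressed as g/ha. Read-out at 3 wk, 0–5 score.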

[2] = test system: Monochoria vaginalis; experiment: as above; details: Eighteenth Table; application herbicide amount 320 g/ha
Method in brief: as §1

[3] = test system: Scirpus juncoides; experiment: as above; details: Eighteenth Table; application herbicide amount 320 g/ha
Method in brief: as §1

[4] = test system: Beta vulgaris ssp. vulgaris; experiment: Test Example 4: effect on crop by application to foliage (diluvial soil, plastic box); details: 320 g/ha; for f (Beta vulgaris ssp. vulgaris) effect on crop grade: foliage application; for effect on crop, f (Beta vulgaris ssp. vulgaris): application to foliage
Method in brief: (§2)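 Read-out is a 0–5 visual grade of herbicidal ratio (5: ≥90%, almost withered; 0: ≤5%) taken three weeks after treatment. Compound was applied as a diluted emulsion to stem and leaf parts of 14-day greenhouse-grown plants (25° C. to 30° C.) at rates expressed as g/ha.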

[5] = test system: Brassica campestris L.; experiment: as above; details: 320 g/ha; for g (Brassica campestris L.) effect on crop grade: foliage application; for effect on crop, g (Brassica campestris L.): application to foliage
Method in brief: as §2

[6] = test system: Glycine max; experiment: as above; details: 320 g/ha; for c (Glycine max) effect on crop grade: foliage application; for effect on crop, c (Glycine max): application to foliage
Method in brief: as §2

[7] = test system: Triticum aestivum; experiment: as above; details: 320 g/ha; for e (Triticum aestivum) effect on crop grade: foliage application; for effect on crop, e (Triticum aestivum): application to foliage
Method in brief: as §2

[8] = test system: Zea mays; experiment: as above; details: 320 g/ha; for b (Zea mays) effect on crop grade: foliage application; for effect on crop, b (Zea mays): application to foliage
Method in brief: as §2

[9] = test system: directly sowed Oryza sativa; experiment: as above; details: 320 g/ha; for d (directly sowed Oryza sativa) effect on crop grade: foliage application; for effect on crop, d (directly sowed Oryza sativa): application to foliage
Method in brief: as §2

`CCCS(=O)(=O)c1nnc2c(C(=O)Nc3nnnn3C)ccc(C(F)(F)F)n12` [2-070] was tested, and the “A (Echinochloa oryzicola Vasing.) herbicidal ratio grade” value [1] was 5 (Herbicidal ratio of 90% or more (almost completely withered)), the “C (Monochoria vaginalis) herbicidal ratio grade” value [2] was 5 (Herbicidal ratio of 90% or more (almost completely withered)) and the “B (Scirpus juncoides) herbicidal ratio grade” value [3] was 5 (Herbicidal ratio of 90% or more (almost completely withered)). The “f (Beta vulgaris ssp. vulgaris) effect on crop grade” value [4] was 5 (Herbicidal ratio of 90% or more (almost completely withered)), the “g (Brassica campestris L.) effect on crop grade” value [5] was 5 (Herbicidal ratio of 90% or more (almost completely withered)) and the “c (Glycine max) effect on crop grade” value [6] was 4 (Herbicidal ratio of 70% or more and less than 90%). The “e (Triticum aestivum) effect on crop grade” value (from here on “e (Triticum aestivum) effect”) [7] was 4 (Herbicidal ratio of 70% or more and less than 90%), the “b (Zea mays) effect on crop grade” value [8] was 3 (Herbicidal ratio of 40% or more and less than 70%) and the “d (directly sowed Oryza sativa) effect on crop grade” value [9] was 3 (Herbicidal ratio of 40% or more and less than 70%).

With `CC(C)CSc1nnc2c(C(=O)Nc3nnnn3C)ccc(C(F)(F)F)n12` [2-071] the “A (Echinochloa oryzicola Vasing.) herbicidal ratio grade” value [1] was 3 (Herbicidal ratio of 40% or more and less than 70%), the “C (Monochoria vaginalis) herbicidal ratio grade” value [2] was 5 (Herbicidal ratio of 90% or more (almost completely withered)) and the “B (Scirpus juncoides) herbicidal ratio grade” value [3] was 5 (Herbicidal ratio of 90% or more (almost completely withered)). For the same molecule, the “f (Beta vulgaris ssp. vulgaris) effect on crop grade” value [4] was 5 (Herbicidal ratio of 90% or more (almost completely withered)), the “g (Brassica campestris L.) effect on crop grade” value [5] was 4 (Herbicidal ratio of 70% or more and less than 90%) and the “c (Glycine max) effect on crop grade” value [6] was 2 (Herbicidal ratio of 20% or more and less than 40%). For the same molecule, the “e (Triticum aestivum) effect” value [7] was 1 (Herbicidal ratio of 5% or more and less than 20%), the “b (Zea mays) effect on crop grade” value [8] was 1 (Herbicidal ratio of 5% or more and less than 20%) and the “d (directly sowed Oryza sativa) effect on crop grade” value [9] was 3 (Herbicidal ratio of 40% or more and less than 70%).

`CCC(C)Sc1nnc2c(C(=O)Nc3nnnn3C)ccc(C(F)(F)F)n12` (stereo not drawn) [2-072] was tested, and the “A (Echinochloa oryzicola Vasing.) herbicidal ratio grade” value [1] was 5 (Herbicidal ratio of 90% or more (almost completely withered)), the “C (Monochoria vaginalis) herbicidal ratio grade” value [2] was 5 (Herbicidal ratio of 90% or more (almost completely withered)) and the “B (Scirpus juncoides) herbicidal ratio grade” value [3] was 5 (Herbicidal ratio of 90% or more (almost completely withered)). For the same molecule, the “f (Beta vulgaris ssp. vulgaris) effect on crop grade” value [4] was 5 (Herbicidal ratio of 90% or more (almost completely withered)), the “g (Brassica campestris L.) effect on crop grade” value [5] was 4 (Herbicidal ratio of 70% or more and less than 90%) and the “c (Glycine max) effect on crop grade” value [6] was 3 (Herbicidal ratio of 40% or more and less than 70%). The “e (Triticum aestivum) effect” value [7] was 1 (Herbicidal ratio of 5% or more and less than 20%), the “b (Zea mays) effect on crop grade” value [8] was 1 (Herbicidal ratio of 5% or more and less than 20%) and the “d (directly sowed Oryza sativa) effect on crop grade” value [9] was 4 (Herbicidal ratio of 70% or more and less than 90%).

With `CC(C)c1nnc2c(C(=O)Nc3nnnn3-c3ccccc3)ccc(C(F)(F)F)n12` [2-073] the “A (Echinochloa oryzicola Vasing.) herbicidal ratio grade” value [1] was 2 (Herbicidal ratio of 20% or more and less than 40%), the “C (Monochoria vaginalis) herbicidal ratio grade” value [2] was 3 (Herbicidal ratio of 40% or more and less than 70%) and the “B (Scirpus juncoides) herbicidal ratio grade” value [3] was 2 (Herbicidal ratio of 20% or more and less than 40%). The “f (Beta vulgaris ssp. vulgaris) effect on crop grade” value [4] was 3 (Herbicidal ratio of 40% or more and less than 70%), the “g (Brassica campestris L.) effect on crop grade” value [5] was 0 (Herbicidal ratio of 5% or less (almost no effect)) and the “c (Glycine max) effect on crop grade” value [6] was 0 (Herbicidal ratio of 5% or less (almost no effect)). For the same molecule, the “e (Triticum aestivum) effect” value [7] was 0 (Herbicidal ratio of 5% or less (almost no effect)), the “b (Zea mays) effect on crop grade” value [8] was 0 (Herbicidal ratio of 5% or less (almost no effect)) and the “d (directly sowed Oryza sativa) effect on crop grade” value [9] was 2 (Herbicidal ratio of 20% or more and less than 40%).

`COCCNc1nnc2c(C(=O)Nc3nnnn3C)ccc(C(F)(F)F)n12` [2-074] was tested, and the “A (Echinochloa oryzicola Vasing.) herbicidal ratio grade” value [1] was 4 (Herbicidal ratio of 70% or more and less than 90%), the “C (Monochoria vaginalis) herbicidal ratio grade” value [2] was 3 (Herbicidal ratio of 40% or more and less than 70%) and the “B (Scirpus juncoides) herbicidal ratio grade” value [3] was 4 (Herbicidal ratio of 70% or more and less than 90%). For the same molecule, the “f (Beta vulgaris ssp. vulgaris) effect on crop grade” value [4] was 5 (Herbicidal ratio of 90% or more (almost completely withered)), the “g (Brassica campestris L.) effect on crop grade” value [5] was 4 (Herbicidal ratio of 70% or more and less than 90%) and the “c (Glycine max) effect on crop grade” value [6] was 3 (Herbicidal ratio of 40% or more and less than 70%). The “e (Triticum aestivum) effect” value [7] was 3 (Herbicidal ratio of 40% or more and less than 70%), the “b (Zea mays) effect on crop grade” value [8] was 5 (Herbicidal ratio of 90% or more (almost completely withered)) and the “d (directly sowed Oryza sativa) effect on crop grade” value [9] was 4 (Herbicidal ratio of 70% or more and less than 90%).

With `Cn1nnnc1NC(=O)c1ccc(C(F)(F)F)n2c(N3CCOCC3)nnc12` [2-075] the “A (Echinochloa oryzicola Vasing.) herbicidal ratio grade” value [1] was 5 (Herbicidal ratio of 90% or more (almost completely withered)), the “C (Monochoria vaginalis) herbicidal ratio grade” value [2] was 5 (Herbicidal ratio of 90% or more (almost completely withered)) and the “B (Scirpus juncoides) herbicidal ratio grade” value [3] was 5 (Herbicidal ratio of 90% or more (almost completely withered)). The “effect on crop, f (Beta vulgaris ssp. vulgaris)” value (shortened to “effect on crop, f”) [4] was 5 (Herbicidal ratio of 90% or more (almost completely withered)), the “effect on crop, g (Brassica campestris L.)” value (“effect on crop, g” for short) [5] was 5 (Herbicidal ratio of 90% or more (almost completely withered)) and the “effect on crop, c (Glycine max)” value [6] was 3 (Herbicidal ratio of 40% or more and less than 70%). The “effect on crop, e (Triticum aestivum)” value [7] was 4 (Herbicidal ratio of 70% or more and less than 90%), the “effect on crop, b (Zea mays)” value [8] was 5 (Herbicidal ratio of 90% or more (almost completely withered)) and the “effect on crop, d (directly sowed Oryza sativa)” value (“effect on crop, d” below) [9] was 5 (Herbicidal ratio of 90% or more (almost completely withered)).

In the case of `Cn1nnnc1NC(=O)c1ccc(C(F)(F)F)n2c(SCc3ccccc3)nnc12` [2-076], the “A (Echinochloa oryzicola Vasing.) herbicidal ratio grade” value [1] is reported as 2 (Herbicidal ratio of 20% or more and less than 40%), the “C (Monochoria vaginalis) herbicidal ratio grade” value [2] is reported as 2 (Herbicidal ratio of 20% or more and less than 40%) and the “B (Scirpus juncoides) herbicidal ratio grade” value [3] is reported as 3 (Herbicidal ratio of 40% or more and less than 70%). The “effect on crop, f” value [4] was 5 (Herbicidal ratio of 90% or more (almost completely withered)), the “effect on crop, g” value [5] was 4 (Herbicidal ratio of 70% or more and less than 90%) and the “effect on crop, c (Glycine max)” value [6] was 0 (Herbicidal ratio of 5% or less (almost no effect)). For the same molecule, the “effect on crop, e (Triticum aestivum)” value [7] was 0 (Herbicidal ratio of 5% or less (almost no effect)), the “effect on crop, b (Zea mays)” value [8] was 1 (Herbicidal ratio of 5% or more and less than 20%) and the “effect on crop, d” value [9] was 1 (Herbicidal ratio of 5% or more and less than 20%).

With `COc1ccc(CSc2nnc3c(C(=O)Nc4nnnn4C)ccc(C(F)(F)F)n23)cc1` [2-077] the “A (Echinochloa oryzicola Vasing.) herbicidal ratio grade” value [1] was 2 (Herbicidal ratio of 20% or more and less than 40%), the “C (Monochoria vaginalis) herbicidal ratio grade” value [2] was 2 (Herbicidal ratio of 20% or more and less than 40%) and the “B (Scirpus juncoides) herbicidal ratio grade” value [3] was 2 (Herbicidal ratio of 20% or more and less than 40%). For the same molecule, the “effect on crop, f” value [4] was 5 (Herbicidal ratio of 90% or more (almost completely withered)), the “effect on crop, g” value [5] was 2 (Herbicidal ratio of 20% or more and less than 40%) and the “effect on crop, c (Glycine max)” value [6] was 0 (Herbicidal ratio of 5% or less (almost no effect)). For the same molecule, the “effect on crop, e (Triticum aestivum)” value [7] was 0 (Herbicidal ratio of 5% or less (almost no effect)), the “effect on crop, b (Zea mays)” value [8] was 0 (Herbicidal ratio of 5% or less (almost no effect)) and the “effect on crop, d” value [9] was 2 (Herbicidal ratio of 20% or more and less than 40%).

With `Cn1nnnc1NC(=O)c1ccc(C(F)(F)F)n2c(N3CCSCC3)nnc12` [2-078] the “A (Echinochloa oryzicola Vasing.) herbicidal ratio grade” value [1] was 4 (Herbicidal ratio of 70% or more and less than 90%), the “C (Monochoria vaginalis) herbicidal ratio grade” value [2] was 3 (Herbicidal ratio of 40% or more and less than 70%) and the “B (Scirpus juncoides) herbicidal ratio grade” value [3] was 4 (Herbicidal ratio of 70% or more and less than 90%). For the same molecule, the “effect on crop, f” value [4] was 5 (Herbicidal ratio of 90% or more (almost completely withered)), the “effect on crop, g” value [5] was 5 (Herbicidal ratio of 90% or more (almost completely withered)) and the “effect on crop, c (Glycine max)” value [6] was 1 (Herbicidal ratio of 5% or more and less than 20%). For the same molecule, the “effect on crop, e (Triticum aestivum)” value [7] was 2 (Herbicidal ratio of 20% or more and less than 40%), the “effect on crop, b (Zea mays)” value [8] was 4 (Herbicidal ratio of 70% or more and less than 90%) and the “effect on crop, d” value [9] was 4 (Herbicidal ratio of 70% or more and less than 90%).

In the case of `COCCN(C)c1nnc2c(C(=O)Nc3nnnn3C)ccc(C(F)(F)F)n12` [2-079], the “A (Echinochloa oryzicola Vasing.) herbicidal ratio grade” value [1] is reported as 5 (Herbicidal ratio of 90% or more (almost completely withered)), the “C (Monochoria vaginalis) herbicidal ratio grade” value [2] is reported as 5 (Herbicidal ratio of 90% or more (almost completely withered)) and the “B (Scirpus juncoides) herbicidal ratio grade” value [3] is reported as 5 (Herbicidal ratio of 90% or more (almost completely withered)). The “effect on crop, f” value [4] was 5 (Herbicidal ratio of 90% or more (almost completely withered)), the “effect on crop, g” value [5] was 5 (Herbicidal ratio of 90% or more (almost completely withered)) and the “effect on crop, c (Glycine max)” value [6] was 2 (Herbicidal ratio of 20% or more and less than 40%). For the same molecule, the “effect on crop, e (Triticum aestivum)” value [7] was 2 (Herbicidal ratio of 20% or more and less than 40%), the “effect on crop, b (Zea mays)” value [8] was 5 (Herbicidal ratio of 90% or more (almost completely withered)) and the “effect on crop, d” value [9] was 4 (Herbicidal ratio of 70% or more and less than 90%).

Source: patent US9708314B2, “Heterocyclic amide compound” (NISSAN CHEMICAL INDUSTRIES, LTD., priority 2013, dated 2017)
